The target of data set [1] is Potassium voltage-gated channel subfamily A member 3 (Homo sapiens, UniProt P22001). Briefly: Inhibition of human Kv1.3 ion channel expressed in CGE22 cells. It counts as cell-based.
Data set [2] has as its target Potassium voltage-gated channel subfamily A member 5 (Homo sapiens, UniProt P22460). Kind of data set: Inhibition of human Kv1.5 ion channel expressed in CHO K1 cells. It counts as cell-based.
Data set [3] can be described thus: Half life in rat liver microsome. It counts as ADME. Conditions: liver microsomes.
Data set [4] in a line: Aqueous solubility of compound by chemiluminescent nitrogen detection analysis. It counts as physicochemical.
Data set [5] can be described thus: Cmax in rat at 10 mg/kg, po. It counts as ADME, organism-based. Conditions: in vivo. Details: dose 10 mg/kg, route oral.
The next data set deals with Rattus norvegicus. Kind of data set: Dose normalised AUC in rat at 10 mg/kg, po. Details: dose 10 mg/kg, route oral. It counts as ADME, organism-based. Conditions: in vivo.

Each structure is given as a SMILES string. pIC50: −log10 of the molar value. Converted amounts (≈) assume the structure as drawn.

Sequence of Potassium voltage-gated channel subfamily A member 5 (P22460 whole entry): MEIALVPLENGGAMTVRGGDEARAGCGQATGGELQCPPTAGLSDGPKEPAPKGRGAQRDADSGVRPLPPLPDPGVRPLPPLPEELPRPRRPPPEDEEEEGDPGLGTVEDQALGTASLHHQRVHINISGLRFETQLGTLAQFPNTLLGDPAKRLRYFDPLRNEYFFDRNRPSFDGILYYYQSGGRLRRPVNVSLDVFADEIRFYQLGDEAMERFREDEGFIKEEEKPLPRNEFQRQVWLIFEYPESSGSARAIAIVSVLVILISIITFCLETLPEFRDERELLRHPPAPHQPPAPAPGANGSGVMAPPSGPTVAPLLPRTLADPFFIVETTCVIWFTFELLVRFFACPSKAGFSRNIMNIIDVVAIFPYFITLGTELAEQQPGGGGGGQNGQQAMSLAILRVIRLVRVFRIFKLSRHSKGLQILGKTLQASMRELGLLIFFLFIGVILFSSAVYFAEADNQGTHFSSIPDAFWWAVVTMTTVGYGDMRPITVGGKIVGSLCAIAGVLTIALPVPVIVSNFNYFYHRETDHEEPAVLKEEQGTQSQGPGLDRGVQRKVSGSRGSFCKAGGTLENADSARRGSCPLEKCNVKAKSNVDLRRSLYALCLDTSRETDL
Sequence of Potassium voltage-gated channel subfamily A member 3 (P22001 whole entry): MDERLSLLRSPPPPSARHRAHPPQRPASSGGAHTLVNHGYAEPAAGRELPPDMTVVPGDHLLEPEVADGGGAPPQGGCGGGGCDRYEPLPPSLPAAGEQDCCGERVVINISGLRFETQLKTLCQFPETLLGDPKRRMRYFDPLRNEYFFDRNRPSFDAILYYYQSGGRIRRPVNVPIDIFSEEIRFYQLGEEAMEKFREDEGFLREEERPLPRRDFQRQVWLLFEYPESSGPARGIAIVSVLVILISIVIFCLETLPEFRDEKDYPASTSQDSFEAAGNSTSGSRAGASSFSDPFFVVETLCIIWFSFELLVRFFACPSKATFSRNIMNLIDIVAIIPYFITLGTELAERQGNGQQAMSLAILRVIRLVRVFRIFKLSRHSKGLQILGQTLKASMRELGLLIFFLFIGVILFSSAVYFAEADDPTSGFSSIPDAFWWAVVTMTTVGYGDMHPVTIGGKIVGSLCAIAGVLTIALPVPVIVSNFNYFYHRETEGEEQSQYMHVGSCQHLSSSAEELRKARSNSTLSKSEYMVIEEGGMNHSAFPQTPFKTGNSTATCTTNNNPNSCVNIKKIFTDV

With `CC(C)(CNC(=O)C1CC1)CN(C1=NS(=O)(=O)c2cc(F)ccc21)c1ccccc1`, the pIC50 in data set [1] is 6.55; in data set [2] it was 6.31.

Take `CC(C)(CNC(=O)C1(O)CC1)CN(C1=NS(=O)(=O)c2cc(F)ccc21)c1ccccc1`: the pIC50 was 6.09 in data set [1] and 5.87 in data set [2].

Consider `Cn1ccnc1C(=O)NCC(C)(C)CN(C1=NS(=O)(=O)c2cc(F)ccc21)c1ccccc1`, for which the pIC50 in data set [1] was 6.26; in data set [2] it was 6.28.

As for `CC(C)(CNC(=O)c1cc[nH]c1)CN(C1=NS(=O)(=O)c2cc(F)ccc21)c1ccccc1`, the results for the pIC50 in data set [1] and in data set [2] were 5.94 and 5.88, respectively.

`O=C(NCCCN(C1=NS(=O)(=O)c2ccccc21)c1ccccc1)c1ccc(F)cc1` registered a half-life in data set [3] of under 15 min.

As to `CC(C)(CNC(=O)C1(C(F)(F)F)CC1)CN(C1=NS(=O)(=O)c2cc(F)ccc21)c1ccccc1`, the pIC50 is 7.10 in data set [1] and 6.62 in data set [2].

With `CC(C)(CNC(=O)C1(C(=O)O)CC1)CN(C1=NS(=O)(=O)c2cc(F)ccc21)c1ccccc1`, the pIC50 in data set [1] and in data set [2] was under 4.30 throughout.

For the compound `CC(C)(CNC(=O)c1cnccn1)CN(C1=NS(=O)(=O)c2cc(F)ccc21)c1ccccc1`, the results for the pIC50 in data set [1] and in data set [2] were 6.64 and 6.46, respectively.

Turning to `CC(C)(CNC(=O)c1ccncc1O)CN(C1=NS(=O)(=O)c2cc(F)ccc21)c1ccccc1`, the pIC50 in data set [1] and in data set [2] was under 4.30 each time.

Consider `CC(C)(CNC(=O)C1(N)CC1)CN(C1=NS(=O)(=O)c2cc(F)ccc21)c1ccccc1`, for which the values for the pIC50 in data set [1] and in data set [2] were 6.28 and 6.10, respectively.

Regarding `CC(C)(CNC(=O)C1(C#N)CC1)CN(C1=NS(=O)(=O)c2cc(F)ccc21)c1ccccc1`, the results for the pIC50 in data set [1] and in data set [2] were 6.46 and 6.27, respectively. In data set [4], this compound displayed a solubility of 304 µM (≈ 138 µg/mL). Further, in data set [5], the Cmax turned out to be 900 ng/mL. Also, the AUC in the data set with Rattus norvegicus was determined as 630 ng·kg·h/mg/mL.

With `COc1cnccc1C(=O)NCC(C)(C)CN(C1=NS(=O)(=O)c2cc(F)ccc21)c1ccccc1`, the negative-log IC50 (pIC50) in data set [1] was 6.70; in data set [2], 6.43.

Turning to `CC(C)(CNC(=O)c1ncccc1O)CN(C1=NS(=O)(=O)c2cc(F)ccc21)c1ccccc1`, the pIC50 in data set [1] was 6.49; in data set [2], 6.34.

Take `CC(C)(CNC(=O)C1CC1(F)F)CN(C1=NS(=O)(=O)c2cc(F)ccc21)c1ccccc1` (configuration not stated): the results for the pIC50 in data set [1] and in data set [2] were 6.85 and 6.49, respectively.

As to `CC(C)(CNC(=O)C1(C)CC1)CN(C1=NS(=O)(=O)c2cc(F)ccc21)c1ccccc1`, the pIC50 in data set [1] is 6.70; in data set [2] it was 6.43.

`CC(C)(CNC(=O)c1cccnc1O)CN(C1=NS(=O)(=O)c2cc(F)ccc21)c1ccccc1`: the figures for the pIC50 in data set [1] and in data set [2] were 5.00 and 5.04, respectively.

As to `CC(C)(CNC(=O)C(C)(O)C(F)(F)F)CN(C1=NS(=O)(=O)c2cc(F)ccc21)c1ccccc1` (configuration not stated), the pIC50 in data set [1] is 6.60; in data set [2], 6.32. In addition, the solubility in data set [4] was 52 µM (≈ 26.1 µg/mL). Further, the highest level in data set [5] (Cmax) was 2100 ng/mL. Besides, in the data set with Rattus norvegicus, the AUC turned out to be 1630 ng·kg·h/mg/mL.

In the case of `CC(C)(CNC(=O)C1(C(F)(F)F)CCC1)CN(C1=NS(=O)(=O)c2cc(F)ccc21)c1ccccc1`, the negative-log IC50 (pIC50) was 7.05 in data set [1] and 6.49 in data set [2].

`CC(C)(CNC(=O)C1(O)CCCC1)CN(C1=NS(=O)(=O)c2cc(F)ccc21)c1ccccc1`: the values for the pIC50 in data set [1] and in data set [2] were 6.33 and 6.14, respectively.

In the case of `CC(C)(CNC(=O)C1(N)CCCC1)CN(C1=NS(=O)(=O)c2cc(F)ccc21)c1ccccc1`, the pIC50 was 5.82 in data set [1] and 5.58 in data set [2].

`CC(C)(CNC(=O)C1(O)CCCCC1)CN(C1=NS(=O)(=O)c2cc(F)ccc21)c1ccccc1`: the pIC50 was 6.46 in data set [1] and 6.35 in data set [2].

Take `CC(C)(CNC(=O)C1(O)CCC(F)(F)CC1)CN(C1=NS(=O)(=O)c2cc(F)ccc21)c1ccccc1`: the pIC50 is 6.41 in data set [1] and 6.20 in data set [2].

Consider `CC(C)(CNC(=O)C1CCCO1)CN(C1=NS(=O)(=O)c2cc(F)ccc21)c1ccccc1` (configuration not stated), for which the results for the pIC50 in data set [1] and in data set [2] were 6.44 and 6.08, respectively.

With `CC(C)(CNC(=O)C1CCCCO1)CN(C1=NS(=O)(=O)c2cc(F)ccc21)c1ccccc1` (configuration not stated), the pIC50 in data set [1] was 6.19; in data set [2], 6.36.

As for `CC(C)(CNC(=O)CC1CCCCO1)CN(C1=NS(=O)(=O)c2cc(F)ccc21)c1ccccc1` (configuration not stated), the results for the pIC50 in data set [1] and in data set [2] were 5.87 and 6.11, respectively.

In the case of `CC(C)(CNC(=O)C1CCOCC1(C)C)CN(C1=NS(=O)(=O)c2cc(F)ccc21)c1ccccc1` (configuration not stated), the pIC50 is 6.08 in data set [1] and 6.02 in data set [2].

For `CC(C)(CNC(=O)C1(C#N)CCOCC1)CN(C1=NS(=O)(=O)c2cc(F)ccc21)c1ccccc1`, the pIC50 was 6.48 in data set [1] and 6.25 in data set [2].

Regarding `CC(C)(CNC(=O)C1(O)CCOCC1)CN(C1=NS(=O)(=O)c2cc(F)ccc21)c1ccccc1`, the pIC50 in data set [1] is 5.97; in data set [2] it was 5.70.

As for `CN1CCCC1C(=O)NCC(C)(C)CN(C1=NS(=O)(=O)c2cc(F)ccc21)c1ccccc1` (configuration not stated), the pIC50 in data set [1] is 5.59; in data set [2] it was 5.86.

Take `CC(C)(CNC(=O)c1ccc(F)cc1)CN(C1=NS(=O)(=O)c2ccccc21)c1ccccc1`: in data set [1], the pIC50 was 6.80. Also, the half-life in data set [3] was under 15 min.

In data set [1], `CC(CNC(=O)c1ccc(F)cc1)CN(C1=NS(=O)(=O)c2ccccc21)c1ccccc1` (configuration not stated) gave a pIC50 of 6.36. Also, the half-life in data set [3] amounted to 22 min.

Turning to `CC(C)(CNC(=O)C1CCCCN1)CN(C1=NS(=O)(=O)c2cc(F)ccc21)c1ccccc1` (configuration not stated), the results for the negative logarithm of the IC50 (pIC50) in data set [1] and in data set [2] were 5.23 and 5.22, respectively.

As for `CN1CCCCC1C(=O)NCC(C)(C)CN(C1=NS(=O)(=O)c2cc(F)ccc21)c1ccccc1` (configuration not stated), the pIC50 was 5.47 in data set [1] and 5.54 in data set [2].

In turn, `CC(C)(CNC(=O)N1CCOCC1)CN(C1=NS(=O)(=O)c2ccccc21)c1ccccc1` had a pIC50 in data set [1] of 6.33. The compound also yielded a half-life in data set [3] of 30 min.

In data set [1], `CC(C)(CNC(=O)N1CCOCC1)CN(C1=NS(=O)(=O)c2cc(F)ccc21)c1ccccc1` showed a negative-log IC50 (pIC50) of 6.47. Moreover, the half-life in data set [3] is 60 min.

As to `CN1CCC(C(=O)NCC(C)(C)CN(C2=NS(=O)(=O)c3cc(F)ccc32)c2ccccc2)CC1`, the negative logarithm of the IC50 (pIC50) in data set [1] and in data set [2] was under 4.30 throughout.

In the case of `CN1CCCC(C(=O)NCC(C)(C)CN(C2=NS(=O)(=O)c3cc(F)ccc32)c2ccccc2)C1` (configuration not stated), the pIC50 in data set [1] was 4.92; in data set [2], 4.86.

In data set [1], `CC(C)(CNC(=O)c1cccc(C(F)(F)F)c1)CN(C1=NS(=O)(=O)c2ccccc21)c1ccccc1` gave a pIC50 of 6.25. In addition, the half-life in data set [3] is under 15 min.

In data set [1], `CC(C)(CNC(=O)c1cccc(C(F)(F)F)c1)CN(C1=NS(=O)(=O)c2cc(F)ccc21)c1ccccc1` gave a negative logarithm of the IC50 (pIC50) of 6.15. The compound also had a half-life in data set [3] of 39 min.

Take `CC(C)(CNC(=O)C1CCCNC1)CN(C1=NS(=O)(=O)c2cc(F)ccc21)c1ccccc1` (configuration not stated): the negative logarithm of the IC50 (pIC50) in data set [1] and in data set [2] was under 4.30 throughout.

In the case of `CC(C)(CNC(=O)C1COCCN1)CN(C1=NS(=O)(=O)c2cc(F)ccc21)c1ccccc1` (configuration not stated), the pIC50 is 5.90 in data set [1] and 5.70 in data set [2].

In turn, `CC(C)(CNC(=O)C1CCOCC1)CN(C1=NS(=O)(=O)c2ccccc21)c1ccccc1` showed a negative logarithm of the IC50 (pIC50) in data set [1] of 6.15. Further, the half-life in data set [3] amounted to 32 min.

`CC(C)(CNC(=O)C1CCOCC1)CN(C1=NS(=O)(=O)c2cc(F)ccc21)c1ccccc1` gave a pIC50 in data set [1] of 6.28. This compound also yielded a half-life in data set [3] of 26 min.

As for `CC(C)(CNC(=O)c1ccco1)CN(C1=NS(=O)(=O)c2cc(F)ccc21)c1ccccc1`, the pIC50 in data set [1] was 6.70; in data set [2], 6.39.

Turning to `CC(C)(CNC(=O)c1ccoc1)CN(C1=NS(=O)(=O)c2cc(F)ccc21)c1ccccc1`, the pIC50 in data set [1] was 6.82; in data set [2], 6.44.

Consider `CC(C)(CNC(=O)N1CCCC1)CN(C1=NS(=O)(=O)c2cc(F)ccc21)c1ccccc1`, for which the negative logarithm of the IC50 (pIC50) in data set [1] was 6.52; in data set [2] it was 6.47.

As to `CC(=O)NCC(C)(C)CN(C1=NS(=O)(=O)c2cc(F)ccc21)c1ccccc1`, the negative-log IC50 (pIC50) in data set [1] and in data set [2] was 5.93 throughout.

`CC(C)(CNC(=O)c1cc2ccccc2o1)CN(C1=NS(=O)(=O)c2cc(F)ccc21)c1ccccc1`: the pIC50 in data set [1] and in data set [2] was under 4.30 throughout.

As for `CC(C)(CNC(=O)c1cscn1)CN(C1=NS(=O)(=O)c2cc(F)ccc21)c1ccccc1`, the pIC50 is 6.27 in data set [1] and 6.54 in data set [2].

Regarding `CC(C)(CNC(=O)CC(F)(F)F)CN(C1=NS(=O)(=O)c2cc(F)ccc21)c1ccccc1`, the results for the pIC50 in data set [1] and in data set [2] were 6.82 and 6.57, respectively.

Take `CNC(=O)NCC(C)(C)CN(C1=NS(=O)(=O)c2cc(F)ccc21)c1ccccc1`: the pIC50 in data set [1] was 5.51; in data set [2], 5.65.

Regarding `CC(C)(CNC(=O)c1cocn1)CN(C1=NS(=O)(=O)c2cc(F)ccc21)c1ccccc1`, the pIC50 in data set [1] is 6.12; in data set [2], 6.05.

For the compound `Cn1cnc(C(=O)NCC(C)(C)CN(C2=NS(=O)(=O)c3cc(F)ccc32)c2ccccc2)c1`, the pIC50 in data set [1] was 4.88; in data set [2], 4.86.

For `O=c1ccc2c(OCCCCOc3ccccc3)c3ccoc3cc2o1`, the pIC50 in data set [2] is 5.46.

Source of the values: ChEMBL document CHEMBL1287701, “Substituted N-{3-[(1,1-dioxido-1,2-benzothiazol-3-yl)(phenyl)amino]propyl}benzamide analogs as potent Kv1.3 ion channel blockers. Part 2” (Bioorg Med Chem Lett, 2010).
